According to article PMC3873415, “A Non-Biological Method for Screening Active Components against Influenza Virus from Traditional Chinese Medicine by Coupling a LC Column with Oseltamivir Molecularly Imprinted Polymers” (PLoS ONE, 2013):
“Also recorded” adds a separate entry of the source.

Tests used:
[1] = test system: Influenza virus strain A/Goose/Dalian/3/2001 (H9N2); type: cell-based, avian influenza virus H9N2
[2] = test system: Influenza virus strain A/Goose/Dalian/3/2001 (H9N2); type: cell-based, avian influenza virus H9N2; remark: listed apart in the source
[3] = test system: avian influenza virus H9N2; type: cell-based
[4] = test system: MDCK cells; settings: dog
[5] = test system: Kunming mice; settings: cited from earlier work
[6] = test system: enterovirus 71; settings: enterovirus 71 on rhabdomyosarcoma cells; cited from earlier work
[7] = test system: enterovirus 71; settings: mice challenged with a lethal dose of enterovirus 71; cited from earlier work

Molecule | Activity: CPE [1] | Activity: HI [2] | Activity (see Table 1) qualitative [3] | Activity (see Table 1) semi-quantitative [3] | TCD0 (maximum non-toxic concentration) [4] | Activity against H9N2 in vitro (in words) [3] | LD50 ([5]; Kunming mice, acute toxicity, 95% confidence limit 88.08-280.31 mg/kg) | tolerable dose ([5]; Kunming mice, acute toxicity) | Morphological observation ([5]; brain tissue of mice) | viral RNA copy number [6] | mortality and clinical symptoms [7]
O=C(/C=C/c1ccc(O)c(O)c1)O[C@@H]1C[C@](O)(C(=O)O)C[C@@H](O)[C@H]1O [chlorogenic acid] | No differences between all treatment and control groups. | No differences between all treatment and control groups. | 0 | 0 | 0.016 mg/mL |  |  |  |  |  | 
CC(=O)Oc1ccccc1C(=O)O [aspirin] | No differences between all treatment and control groups. | No differences between all treatment and control groups. | 0 | 0 | >0.5 mg/mL |  |  |  |  |  | 
O=C1CCC[C@@H]2[C@H]3CCCN4CCC[C@@H](CN12)[C@@H]34 [matrine] | could protect MDCK cells from H9N2 in a dose-dependent manner; also recorded: The CPE of 0.4, 0.2 and 0.1 mg/ml matrine groups were milder than that of the viral control group | There was no H in 0.2 mg/ml matrine-treated group at 24 h and in 0.4mg/ml matrine-treated group at 24 or 48 h. | 1 | 3 | 0.4 mg/mL | had activity of alleviating CPE and HI against H9N2 in vitro and high | 157.13 mg/kg | above 80 mg/kg | degenerative changes of the nerve cells in the brain tissue of the mice | could suppress the viral RNA copy number on rhabdomyosarcoma cells | reduced the mortality and relieved clinical symptoms
O=C1CCC[C@@H]2[C@H]3CCC[N+]4([O-])CCC[C@@H](CN12)[C@@H]34 (stereo partly shown) [oxymatrine] | No differences between all treatment and control groups. | No differences between all treatment and control groups. | 0 | 0 | >2 mg/mL | did not show any similar bioactivities |  |  |  |  | 
O=C1CCC[C@@H]2[C@H]3CCCN4CCC[C@H](CN12)[C@@H]34 [sophoridine] | The CPE of 2 mg/ml sophoridine-treated group was more severe than that of the viral control at 48 h. The CPE of other test groups with low concentration were consistent with that of the viral control at 48 h. | had HI activity only at concentration of TCD0; also recorded: There was no H of 2 mg/ml sophoridine-treated group at any test time points. But the rest test groups had H at all test time points | 1 | 1 | >2 mg/mL | low |  |  |  |  | 
CCOC(=O)C1=C[C@@H](OC(CC)CC)[C@H](NC(C)=O)[C@@H](N)C1 [OS (template), Oseltamivir] | The CPE of 0.5mg/ml OS-treated group was more severe than viral control group within 48 h. The CPE of groups 0.25, 0.125 and 0.0625 mg/ml were milder than viral control at 72 h. | No hemagglutination (H) was found in all tested groups at 24, 48 or 72 h. | 1 | 3 | 0.5 mg/mL | had activity of alleviating CPE and HI against H9N2 in vitro |  |  |  |  | 
O=C1CCC[C@@H]2[C@H]3CCC[N+]4([O-])CCC[C@H](CN12)[C@@H]34 (stereo partly shown) [oxysophoridine] | No differences between all treatment and control groups | No differences between all treatment and control groups | 0 | 0 | >2 mg/mL | did not show any similar bioactivities |  |  |  |  | 
phillyrin | could not alleviate CPE; also recorded: The CPE of 0.5 and 0.25 mg/ml phillyrin-treated groups were more severe than that of the viral control group within 48 h | had HI activity; also recorded: There was no H in 0.25 mg/ml phillyrin-treated group at 24 h and in 0.5mg/ml phillyrin-treated group at 24 or 48 h | 1 | 1 |  |  |  |  |  |  | 
